Reference: the NIST ThermoML archive (doi:10.1021/je1009976)
Numbers after ± are expanded uncertainties.

Tests used:
[1] = 101 kPa, Liquid; for viscosity: Capillary tube (Ostwald / Ubbelohde) method; for mass density: Pycnometric method
[2] = xn = mol fraction of the nth substance listed; conditions: 101 kPa, Liquid, x2 = 0; for viscosity: Capillary tube (Ostwald / Ubbelohde) method; for mass density: Pycnometric method

SMILES | viscosity ([1]; 303.15 K) | mass density ([1]; 303.15 K) | viscosity ([1]; 308.15 K) | mass density ([1]; 308.15 K) | viscosity ([1]; 313.15 K) | mass density ([1]; 313.15 K) | viscosity ([1]; 318.15 K) | mass density ([1]; 318.15 K) | viscosity ([1]; 323.15 K) | mass density ([1]; 323.15 K) | viscosity ([2]; 303.15 K) | viscosity ([2]; 308.15 K) | mass density ([2]; 308.15 K) | viscosity ([2]; 313.15 K) | viscosity ([2]; 318.15 K) | mass density ([2]; 318.15 K) | viscosity ([2]; 323.15 K)
OCCOCCO [diethylene glycol] | 22.16 ± 0.46 mPa·s | 1109.48 ± 0.75 kg/m3 | 17.93 ± 0.44 mPa·s | 1105.72 ± 0.75 kg/m3 | 14.71 ± 0.43 mPa·s | 1102.11 ± 0.76 kg/m3 | 12.19 ± 0.42 mPa·s | 1098.35 ± 0.76 kg/m3 | 10.19 ± 0.41 mPa·s | 1094.94 ± 0.75 kg/m3 |  |  |  |  |  |  | 
O [water] + OCCOCCO |  |  |  |  |  |  |  |  |  |  | 0.801 ± 0.4 mPa·s | 0.722 mPa·s | 994.12 ± 0.39 kg/m3 | 0.656 mPa·s | 0.598 mPa·s | 990.3 ± 0.44 kg/m3 | 0.549 mPa·s
